Results published in ChEMBL document CHEMBL1136286, “Unexpected enhancement of thrombin inhibitor potency with o-aminoalkylbenzylamides in the P1 position” (Bioorg Med Chem Lett, 2003).

Experiments:
Serine protease 1 [1] = molecular target: T1, Serine protease 1 (Homo sapiens, UniProt P07477); test: Inhibitory constant evaluated against trypsin
Prothrombin = Prothrombin (Homo sapiens, UniProt P00734); test: Inhibitory constant evaluated against thrombin (Factor IIa)
Serine protease 1 [2] = molecular target: T1, Serine protease 1; test: Ratio of inhibitory constant evaluated against trypsin to that of thrombin (Factor IIa)
Homo sapiens = species on record: Homo sapiens; test: Concentration needed to double the activated partial thromboplastin time in human plasma; assay type: functional

T1 sequence (P07477 whole entry): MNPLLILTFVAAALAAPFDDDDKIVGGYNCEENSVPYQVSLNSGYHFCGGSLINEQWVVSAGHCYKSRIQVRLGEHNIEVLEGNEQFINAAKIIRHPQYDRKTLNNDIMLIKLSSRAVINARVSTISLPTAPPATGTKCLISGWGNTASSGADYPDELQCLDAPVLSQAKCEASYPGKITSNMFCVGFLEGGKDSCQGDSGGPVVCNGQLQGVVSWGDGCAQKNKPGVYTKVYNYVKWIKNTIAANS

Row | Ki (Serine protease 1 [1]) | Ki (Prothrombin) | Selectivity ratio (Serine protease 1 [2]) | Compound | 2x APTT (Homo sapiens)
1 | 14.2 µM | 6.6 nM |  | COc1ccc2cc(S(=O)(=O)NC(Cc3ccc(CN)cc3)C(=O)N(C)C3CCCC3)ccc2c1 (configuration not stated) | 
2 | 37 µM | 0.05 nM | 740000 | Cc1ccc(NS(=O)(=O)Cc2ccccc2)c(=O)n1CC(=O)NCc1cc(Cl)ccc1CCN | 0.18 µM
3 | 437 µM | 4.1 nM | 107000 | Cc1ccc(NS(=O)(=O)Cc2ccccc2)c(=O)n1CC(=O)NCc1ccccc1CCN | 0.53 µM
4 | 106 µM | 313 nM | 339 | NCc1ccccc1CNC(=O)[C@@H]1CCCN1C(=O)[C@H](N)Cc1ccccc1 | 
5 |  |  | 6400 | Cc1nc(N)ccc1CNC(=O)Cn1c(C)ccc(NS(=O)(=O)Cc2ccccc2)c1=O [L-374087] | 0.22 µM
6 | 20 µM | 7.1 nM | 2790 | Cc1ccc(NS(=O)(=O)Cc2ccccc2)c(=O)n1CC(=O)NCc1cccc(Cl)c1 | 2.8 µM
7 | 466 µM |  | 3580 | Cc1ccc(NS(=O)(=O)Cc2ccccc2)c(=O)n1CC(=O)NCc1ccccc1 | 
8 | 67 µM | 5.2 nM | 12900 | Cc1ccc(NS(=O)(=O)Cc2ccccc2)c(=O)n1CC(=O)NCc1ccccc1CN | 0.44 µM
9 |  | 39 nM |  | Cc1cc(CNC(=O)[C@@H]2CCCN2C(=O)[C@H](N)C(c2ccccc2)c2ccccc2)c(C)cc1CN | 
10 | 6.2 µM | 3.3 nM | 1910 | NCc1ccc(Cl)cc1CNC(=O)[C@@H]1CCCN1C(=O)[C@H](N)Cc1ccccc1 | 0.34 µM
11 | 1.6 µM | 0.13 nM | 12300 | Cc1cnc(NCCc2ccccc2)c(=O)n1CC(=O)NCc1cc(Cl)ccc1CN | 0.41 µM
12 |  |  | 1910 | Cc1nc(N)ccc1CNC(=O)Cn1c(C)cnc(NCCc2ccccc2)c1=O [L-375378] | 0.41 µM
13 | 6.3 µM | 3.3 nM |  | CN(C(=O)C(Cc1ccc(CN)cc1)NS(=O)(=O)c1ccc2c(c1)CCCCC2)C1CCCC1 (configuration not stated) | 
14 | 1.3 µM | 49 nM | 26.5 | Cc1ccc(NS(=O)(=O)Cc2ccccc2)c(=O)n1CC(=O)NCc1ccc(CN)cc1 | 
15 | 23 µM | 490 nM | 46.9 | Cc1ccc(NS(=O)(=O)Cc2ccccc2)c(=O)n1CC(=O)NCc1cccc(CN)c1 | 
16 | 1.85 µM | 0.046 nM | 40200 | Cc1ccc(NS(=O)(=O)Cc2ccccc2)c(=O)n1CC(=O)NCc1cc(Cl)ccc1CN | 0.16 µM
17 | > 1000 µM | 470 nM | > 2130 | Cc1ccc(NS(=O)(=O)Cc2ccccc2)c(=O)n1CC(=O)NCc1ccccc1N | 
18 | 252 µM | 62 nM | 4060 | NCCc1ccc(Cl)cc1CNC(=O)[C@@H]1CCCN1C(=O)[C@H](N)Cc1ccccc1 | 

Row | Compound | Ki (Serine protease 1 [1]) | Ki (Prothrombin) | Selectivity ratio (Serine protease 1 [2]) | 2x APTT (Homo sapiens)
19 | N[C@H](Cc1ccccc1)C(=O)N1CCC[C@H]1C(=O)NCc1cccc(Cl)c1 | 89 µM | 250 nM | 356 | 
20 | N[C@H](Cc1ccccc1)C(=O)N1CCC[C@H]1C(=O)NCc1ccccc1 | > 1000 µM |  | > 217 | 
21 | NCc1ccc(Cl)cc1CNC(=O)Cn1c(Cl)cnc(NCC(F)(F)c2cccc[n+]2[O-])c1=O | 0.415 µM | 0.0034 nM |  | 0.13 µM
